Laboratory results published in patent publication US5723496A, “Method for prevention and treatment of harmful effects of intracellular acidosis” (priority 1995, dated 1998).
Entries after “also recorded” stand apart in the source; their conditions may differ. Counter-ions that a name gives are not always drawn. Like-named read-outs stand apart in the source and are kept apart here.

Assays:
mouse brain = mouse brain intracellular pH pre- and post-anoxia (Example 7, 31P NMR); assay type: in vivo, Adult Swiss mice; details: FIG. 12, sulfate
Description: (§1) Adult Swiss mice (BK-1 male 20 g) purchased from Bantin & Kingman, Fremont, Calif., were used. Each batch consisted of 15 mice. Within each batch, five mice were selected randomly to be in the GES, taurine, or control group. A taurine group was included to serve as additional control.
A GE Omega CSI-7T (clear bore 120 mm, horizontal, 7T) was used. Mice were anesthetized with pentobarbital, 50 mg/kg, intraperitoneally. Mice were held in a padded holder which was placed in the probe chamber containing a one turn round surface coil (5 mm diameter) tunable to the resonance frequency of proton and ^31 P. To avoid signal contamination, the scalp and temporal muscle were retracted. The animal body temperature was kept at 37° C. using a non-magnetic heating pad. Field homogeneity was maximized by skimming on tissue water proton signals. ^31 P spectra were obtained using a one pulse sequence at 121.67 MHz with a spectral width of 10K and stored into 4K memory blocks (recycle time 1.2 sec). Every 100 transients (2 minutes) were blocked. In order to obtain higher accuracy, preanoxia steady state pH was determined using block average files of three blocks (300 transients, 6 minutes). Anoxia was then introduced by infusion of 100% N2 into the chamber (14 L/min). The first blocks (100 transients, 2 minutes) immediately after N2 introduction were utilized for post anoxia pH measurement. […]

[1] = system: post-ischemia hyperactivity; assay: motor activity (distance traveled) before and after ischemia; assay type: in vivo, gerbil
Description: Ischemia was induced as described above. Motor activity was analyzed using a PC driven automatic behavior analyzer as follows. Animals were placed individually in automated motor activity chambers (Omnitech Digiscan, Columbus, Ohio). A horizontally aligned array of […] infrared beams on each side of the chamber (39×39×39 cm high), located 2.5 cm above the floor and 2.5 cm apart, detected animals movements. […] Animals were studied prior to and 1, 2, 3, 7 day after induction of ischemia. Motor activity was monitored for 6 hours between 11:00 pm and 5:00 am.

[2] = charge state in brain cytosol from pKa; details: sulfate
Source text: (Soc. Neurosci., 21 Annual Meeting, Abstract, 1078, Oct. 5, 1992). Entry of GES across the blood-brain barrier (BBB) is likely to be in the uncharged form. Following free diffusion into the cytosol, the ratio between uncharged and charged forms will equilibrate according to cytosolic pH and the pKa value of GES.
Following free diffusion into cytosol, the ratio between charged (RH3^+) and uncharged forms will equilibrate according to cytosolic pH and their respective pKa values.

pKa determination = assay type: physicochemical; details: read-out: pKa value (guanidino/amidino moiety)
Description: The mixture was heated to 60° C. and maintained at this temperature until evolution of gas ceased. The solution was cooled on ice until crystals were formed. Following the filtration, the crystals were dissolved in a minimum of distilled water and were recrystallized three times from water. Purity of GES was confirmed by proton NMR spectroscopy at 500 MHz (GE Omega-500). The pKa value of the amino moiety of GES was determined to be 12.48
GES was prepared as described above. Taurine and methyl isothiopseudourea were purchased from Sigma (St. Louis, Mo.). […] The mixture was heated to 60° C. and maintained at this temperature until evolution of gas ceased. The solution was cooled on ice to crystalize GES, and filtered. The crystals were dissolved in a minimal amount of distilled water and then recrystallized three times from water. The purity of GES was confirmed by proton NMR spectroscopy at 500 MHz (GE Omega-500). The pKa value of the amidino moiety of GES was determined to be 12.48.

[3] = in vivo, sulfate, cited from earlier work
[4] = observation of behavior and respiratory pattern; assay type: in vivo, Adult Swiss mice; details: two weeks i.p.
Source text: as §1

[5] = system: mouse brain intracellular acidosis; assay: in vivo brain pH before and after 2 min anoxia (Example 4); set-up: species or system mice; details: for brain pH after anoxia / brain pH before anoxia: mice, 3.75 mmole/kg/day i.p., 14 days; for brain pH after anoxia: 2 min anoxia
Description: Using the same experimental procedure as in Example 3, in vivo pH buffering property of guanidinoethanesulfonic acid against the in vivo intracellular acidosis and pH depression caused by anoxia was evaluated.
Aqueous solution of guanidinoethanesulfonic acid (0.3M) was administered daily intraperitoneally to five mice at a dose of 3.75 mmole/kg/day for a period of 14 days. The same number of control mice (5) received intraperitoneal administration of physiological saline solution at a dose of 0.25 ml/animal/day for the same period (14 days).
After the 14 days of administration period of GES or saline, animals were placed in a chamber filled with pure 100% nitrogen for 2 minutes to produce the anoxia state. The pH of the brain was measured in vivo before and after the anoxia by the technique of ^31 P spectroscopy using Omega-7 Tesla Magnetic Resonance Spectrophotometer.

[6] = listed as guanidinoethane sulfate

N=C(N)NCCS(=O)(=O)O [GES, guanidinoethane sulfate]
brain intracellular pH, pre-anoxia (in words) (mouse brain; 625 mg/kg i.p., two weeks, 625 mg/kg): detectable shift in intracellular pH, to a more alkaline level; also recorded: clear alkali shift; also recorded: significantly increased brain intracellular pH (alkaline shift) | brain intracellular pH, post-anoxia (in words) (mouse brain): alkali shift is maintained following 12 minutes of post anoxia; also recorded: remained higher, retaining the degree of alkaline shift | travelling distance before ischemia ([1]; GES-treated gerbils): approximately 150 m/hours | travelling distance of ischemia control vs GES ischemia group ([1]; first day after ischemia): more than 2.5 times | post-ischemia hyperactivity (in words) ([1]; in vivo, sulfate): did not experienced such hyperactivity periods; also recorded: significantly suppressed; also recorded: able to suppress post-ischemic hyperactivity to close to normal levels | charge state in brain cytosol (in words) [2]: virtually all GES in brain cytosol is in the charged form | pKa (pKa determination): 12.5 | blood-brain barrier crossing (in words) ([3]; listed as Guanidinoethanesulfonic acid): ability to cross the blood-brain barrier | blood-brain barrier crossing (in words) [3]: crosses the blood brain barrier in the uncharged form | observable adverse effects in behavior or respiratory pattern [4]: did not show any observable adverse effects | brain pH after anoxia [5, 6]: 7.05±0.05 | brain pH before anoxia [5, 6]: 7.16±0.04 | brain pH after anoxia ([5]; sulfate): 7.05 | brain pH before anoxia ([5]; sulfate): 7.16 | prevention of decrease in brain pH (in words) ([5]; p<0.05, listed as guanidinoethane sulfate): effectively protects the brain cell from the acidosis damage | prevention of decrease in brain pH (in words) ([5]; p<0.05, sulfate): significantly (p<0.05) prevented the decrease in the cellular pH
